Reference: PubChem BioAssay AID2060511 (Molecular Pharmacology Branch, DTP, NCI, 2025)

Test system: 422866-222-R5-J1-PDC spheroids with HUVEC/MSC, viability
Assay: Anticancer human tumor 422866-222-R5-J1-PDC patient-derived pancreatic adenocarcinoma cell line growth inhibition [GQUAD]
Conditions: for IC50: curve of first compound; for viability, T/C: stronger effect = lower value; active means viability on the fitted dose curve at most 10% of control; inactive means the rest
How it was run: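 Viability of tumor cells grown as complex spheroids with endothelial and stromal cells, exposed to drug combinations. Top concentration at or near clinical Cmax (else 10 microM), diluted in half-log increments.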

[1] = second compound 0.0316 µM, first compound 0.0316 µM
[2] = second compound 0.0316 µM, first compound 0.1 µM
[3] = second compound 0.0316 µM, first compound 0.316 µM
[4] = second compound 0.0316 µM, first compound 1 µM
[5] = second compound 0.0316 µM, first compound 3.16 µM
[6] = second compound 0.0316 µM, first compound 10 µM
[7] = second compound 0.1 µM, first compound 0.0316 µM
[8] = second compound 0.1 µM, first compound 0.1 µM
[9] = second compound 0.1 µM, first compound 0.316 µM
[10] = second compound 0.1 µM, first compound 1 µM
[11] = second compound 0.1 µM, first compound 3.16 µM
[12] = second compound 0.1 µM, first compound 10 µM
[13] = second compound 0.316 µM, first compound 0.0316 µM
[14] = second compound 0.316 µM, first compound 0.1 µM
[15] = second compound 0.316 µM, first compound 0.316 µM
[16] = second compound 0.316 µM, first compound 1 µM
[17] = second compound 0.316 µM, first compound 3.16 µM
[18] = second compound 0.316 µM, first compound 10 µM
[19] = second compound 1 µM, first compound 0.0316 µM
[20] = second compound 1 µM, first compound 0.1 µM
[21] = second compound 1 µM, first compound 0.316 µM
[22] = second compound 1 µM, first compound 1 µM
[23] = second compound 1 µM, first compound 3.16 µM
[24] = second compound 1 µM, first compound 10 µM
[25] = second compound 3.16 µM, first compound 0.0316 µM
[26] = second compound 3.16 µM, first compound 0.1 µM
[27] = second compound 3.16 µM, first compound 0.316 µM
[28] = second compound 3.16 µM, first compound 1 µM
[29] = second compound 3.16 µM, first compound 3.16 µM
[30] = second compound 3.16 µM, first compound 10 µM
[31] = second compound 10 µM, first compound 0.0316 µM
[32] = second compound 10 µM, first compound 0.1 µM
[33] = second compound 10 µM, first compound 0.316 µM
[34] = second compound 10 µM, first compound 1 µM
[35] = second compound 10 µM, first compound 3.16 µM
[36] = second compound 10 µM, first compound 10 µM
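Further: spheroids exposed to compounds for seven days before reading.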
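Wherever viability, T/C is given: percent viability relative to DMSO vehicle control taken as 100%.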

COc1ncnc(C2CC2)c1-c1ncc2cnn(Cc3ccc(-c4nc(C(F)(F)F)cn4C(C)C)cc3)c2n1 + Cc1[nH]c2ccc(F)cc2c1-c1nc2c3cccnc3c3ncccc3c2[nH]1
> 10 µM: IC50 (second compound 0.1 µM) | IC50 (second compound 0.316 µM) | IC50 (second compound 1 µM) | IC50 (second compound 3.16 µM) | IC50 (second compound 10 µM)
8.04 µM: IC50 (second compound 0.0316 µM)
inactive: viability, T/C [1] 91.9% | viability, T/C [2] 96.2% | viability, T/C [3] 111% | viability, T/C [4] 87.1% | viability, T/C [5] 64.6% | viability, T/C [6] 46.4% | viability, T/C [7] 106% | viability, T/C [8] 97.4% | viability, T/C [9] 110% | viability, T/C [10] 99.2% | viability, T/C [11] 63.1% | viability, T/C [12] 49.8% | viability, T/C [13] 93% | viability, T/C [14] 116% | viability, T/C [15] 106% | viability, T/C [16] 90.1% | viability, T/C [17] 66.3% | viability, T/C [18] 55.2% | viability, T/C [19] 86% | viability, T/C [20] 110% | viability, T/C [21] 105% | viability, T/C [22] 104% | viability, T/C [23] 72.7% | viability, T/C [24] 54.2% | viability, T/C [25] 67.6% | viability, T/C [26] 70.7% | viability, T/C [27] 71.7% | viability, T/C [28] 77.5% | viability, T/C [29] 63.6% | viability, T/C [30] 60.8% | viability, T/C [31] 58.2% | viability, T/C [32] 53.3% | viability, T/C [33] 73.5% | viability, T/C [34] 47.7% | viability, T/C [35] 60.6% | viability, T/C [36] 50.2%

CC(C)n1c(=O)n(C)c2cnc3cc(F)c(-c4ccc(OCCCN5CCCCC5)nc4)cc3c21 + Cc1cnc(CNC(=O)c2c(=O)c3ccc(N4CCCN(C)CC4)nc3n3c2sc2ccccc23)cn1
> 10 µM: IC50 (second compound 0.0316 µM) | IC50 (second compound 0.1 µM) | IC50 (second compound 0.316 µM) | IC50 (second compound 1 µM) | IC50 (second compound 3.16 µM) | IC50 (second compound 10 µM)
inactive: viability, T/C [1] 81.6% | viability, T/C [2] 74.2% | viability, T/C [3] 75% | viability, T/C [4] 74% | viability, T/C [5] 76.7% | viability, T/C [6] 58.5% | viability, T/C [7] 84.9% | viability, T/C [8] 85.2% | viability, T/C [9] 75% | viability, T/C [10] 75.6% | viability, T/C [11] 90.8% | viability, T/C [12] 50.9% | viability, T/C [13] 86.2% | viability, T/C [14] 93% | viability, T/C [15] 96% | viability, T/C [16] 80.6% | viability, T/C [17] 90.8% | viability, T/C [18] 69.1% | viability, T/C [19] 87.5% | viability, T/C [20] 85.8% | viability, T/C [21] 87.3% | viability, T/C [22] 96% | viability, T/C [23] 96.7% | viability, T/C [24] 71% | viability, T/C [25] 74.5% | viability, T/C [26] 90.5% | viability, T/C [27] 81.1% | viability, T/C [28] 94.2% | viability, T/C [29] 92.6% | viability, T/C [30] 77.4% | viability, T/C [31] 70.9% | viability, T/C [32] 76.5% | viability, T/C [33] 82.2% | viability, T/C [34] 82.3% | viability, T/C [35] 85.5% | viability, T/C [36] 62.5%
